Measured values published in patent US20210267978A1, “NANOPARTICLE FORMULATIONS OF IKE AND METHODS OF USE THEREOF” (The Trustees of Columbia University in the City of New York, priority 2018, published 2021).
Read-outs that look alike come from different tables or passages of the source.

What was measured:
[1] = Pharmacokinetic analysis in mice with three administration routes (plasma, LC-MS); assay type: in vivo; settings: NOD/SCID mice; for AUC(0-t) / Cmax / Tmax / half-life / concentration at 8 h: mouse; for concentration at 8 h: read-out: Clast
Procedure: NOD/SCID mice 12-weeks of age and ˜28 g weight were weighed before injection and divided into groups of 3 mice per cage. IKE was dissolved in 5% DMSO/95% Hank's Balanced Salt Solution (HBSS) (Thermo Fisher Scientific, 14025076), pH 4, to create a 5 mg/mL solution. 5% DMSO/95% HBSS at pH 4 solution (Vehicle 1) without IKE was used as vehicle. The solution was sterilized using a 0.22 μm Steriflip filter unit (Thomas Scientific 1189Q46). Mice were dosed using three different routes, IP and PO with 50 mg/kg IKE, and IV with 17 mg/kg IKE. Samples were collected at 0, 1, 3, 4, and 8 h from three mice per time point. Additionally, three mice per group were used as control by administration with equivalent amount of vehicle 1 by IP, PO, and IV, and samples were collected at 8 h. At the appropriate time, mice were sacrificed by CO2 asphyxiation for 3 min and ˜0.5 mL of blood was collected via cardiac puncture. Blood was immediately put into K3 EDTA micro tube (SARSTEDT 41.1504.105) and placed on ice. Samples were centrifuged for 10 min at 2,100×g at 4° C., plasma was then transferred to a clean tube. Plasma samples were flash frozen in liquid nitrogen and stored at −80° C. IKE was extracted from plasma by adding 900 μL acetonitrile to 100 μL plasma. Samples were mixed for at least 5 min by rotating at room temperature and were sonicated prior to […] for 10 min at 4,000×g and 4° C. The supernatant was removed and dried on a GeneVac evaporator overnight on an HPLC setting. After drying, the samples were resuspended in 100 μL of methanol and analyzed on the liquid chromatography mass spectrometry (LC-MS), with each sample analyzed twice. Quality control standard samples were prepared by dissolving IKE in 100 μL water and extraction with the same procedures to ensure that the extraction was efficient. LC-MS analysis was performed on a platform comprising a Thermo Scientific Dionex Ultimate 3000RS controlled by Chromeleon (Dionex) and a Bruker amazon SL ESI ion-trap mass spectrometer.
Chromatographic separation was performed at 20° C. on Agient Eclipse Plus C18 column (2.1×50 mm, 3.5 μm) at 20° C. over a 12 minute gradient elution. Mobile phase A consisted of water with 0.1% acetic acid v/v and mobile phase B was methanol with 0.1% acetic acid v/v. After injection, the gradient was held at 80% mobile phase A for 1 min. The gradient was then ramped in a linear fashion to 80% mobile phase over 0.5 min. Over the next 3.5 min, the gradient was ramped in linear fashion to 100% mobile phase B and held at 100% mobile phase B for 3.25 min. The gradient was then ramped in a linear fashion to 80% mobile phase over 0.5 min and held there for the duration of the run. The flow rate was set to 400 μL/min and injection volumes were 5 μL. The retention time for IKE in this gradient was 2.8 min.
Mass spectrometry analysis was performed on a Bruker Amazon SL (Billerca, MA) in positive ESI mode. Trap Control was used to control the ESI settings with the inlet capillary held at −4500 V and the end plate offset at −500 V. Nitrogen was used as the desolvation gas. Hystar v 3.2 was used to integrate the UHPLC and MS applications, and data analysis was performed with the Compass DataAnalysis software. The base peak chromatogram at m/z 655.2 with a width of ±0.1 was integrated and peak area quantified by standard curve.
Pharmacokinetics (PK) of IKE was assessed using Prism fitted with lognormal of one phase exponential decay.

[2] = test system: SUDHL6 cells; experiment: C-11 BODIPY lipid peroxidation measurement (flow cytometry); assay type: cell-based; settings: different concentrations of IKE
Procedure: 0.20 million SUDHL-6 cells were seeded in sixc^− well plates and treated with DMSO, IKE, or Fer-1 at specific concentration. The final cell density of 0.05 million cells/mL. After 24 h, cells were harvested by centrifuging at 300×g for 5 min. Cells were resuspended in 500 μL HBSS containing 2 μM C11-BODIPY (BODIPY 581/591 C11) (Thermo Fisher Scientific, D3861) and incubated at 37° C. for 15 min. Cells were pelleted and resuspended in HBSS. Fluorescence intensity was measured on the FL1 channel with gating to record live cells only (gate constructed from DMSO treatment group). A minimum of 10,000 cells were analyzed per condition.

[3] = test system: SUDHL6 xenograft tumor tissue; experiment: TBARS measurement in mouse tumor tissue from efficacy study; assay type: in vivo, NCG mice
Procedure: NCG mice, 6-weeks old, were injected with 10 million SUDHLO-6 cells subcutaneously. The mice were treated after the tumor size reached 100 mm^3. Mice were separated randomly into treatment groups and dosed with 23 mg/kg IKE, 40 mg/kg IKE, 23 mg/kg IKE PEG-PLGA nanoparticles (equal to 700 mg/kg PEG-PLGA), vehicle 1 (based on volume), and vehicle 2 (700 mg/kg PEG-PLGA) once daily by IP for 14 days. Tumor volume was measured daily with electronic caliper and calculated using the formula: 0.5×length×width^2. 3 h after the final dosage, mice were euthanized with CO2 and tumor tissue was dissected, weighed, divided into 4-6 segments, frozen, and stored at −80° C. Tumor volume change was analyzed in Prism using one-way ANOVA. Tumor tissues were analyzed as described in the RT-qPCR, immunofluorescence, TBARS, and lipidomics sections below.
10-25 mg tumor tissue was placed into a 1.5 mL Eppendorf microfuge tube, and the sample was placed on dry ice until use. 20 μL/mg ice cold RIPA buffer with cocktail protease inhibitor (Roche) was added. The tumor tissue was homogenized at speed 5 for 30 sec using Bead Ruptor 4. The sample was centrifuged at 4° C. at 1,600×g for 10 min. The sample was kept on ice and the supernatant used for analysis. […] TBARS was measured using a TBARS Assay Kit (Cayman 700870) following the manufacture's protocol.

[4] = test system: SUDHL6 xenograft tumor tissue; experiment: Western blot of caspase-3 in tumor tissue from efficacy study; assay type: in vivo, NCG mice; settings: treatment for 14 days
Procedure: 10-25 mg tumor tissue was placed into a 1.5 mL Eppendorf microfuge tube, and the sample was placed on dry ice until use. 20 μL/mg ice cold RIPA buffer with cocktail protease inhibitor (Roche) was added. The tumor tissue was homogenized at speed 5 for 30 sec using Bead Ruptor 4. The sample was centrifuged at 4° C. at 1,600×g for 10 min. The sample was kept on ice and the supernatant used for analysis. Caspase-3 antibody which could recognize both full-length caspase-3 and cleaved caspase-3 was used. α-Tubulin antibody was used as the reference.

SMILES: CC(C)Oc1ccc(C(=O)Cn2ccnc2)cc1-n1c(CN2CCN(C(=O)COc3ccc(Cl)cc3)CC2)nc2ccccc2c1=O [IKE, Imidazole ketone erastin]
- Tlast ([1]; IP, 50 mg/kg IKE): 8 h
- Tlast ([1]; IV, 17 mg/kg IKE): 8 h
- Tlast ([1]; PO, 50 mg/kg IKE): 8 h
- AUC(0-t) ([1]; IP, 50 mg/kg IKE): 53900 ng·h/mL
- Cmax ([1]; IP, 50 mg/kg IKE): 19500 ng/mL
- Tmax ([1]; IP, 50 mg/kg IKE): 18.6 min
- half-life ([1]; IP, 50 mg/kg IKE): 109 min
- concentration at 8 h ([1]; IP, 50 mg/kg IKE): 1530 ng/mL
- AUC(0-t) ([1]; IV, 17 mg/kg IKE): 17000 ng·h/mL
- Cmax ([1]; IV, 17 mg/kg IKE): 11400 ng/mL
- Tmax ([1]; IV, 17 mg/kg IKE): 0 min
- half-life ([1]; IV, 17 mg/kg IKE): 78.6 min
- concentration at 8 h ([1]; IV, 17 mg/kg IKE): 16 ng/mL
- AUC(0-t) ([1]; PO, 50 mg/kg IKE): 5720 ng·h/mL
- Cmax ([1]; PO, 50 mg/kg IKE): 5200 ng/mL
- Tmax ([1]; PO, 50 mg/kg IKE): 43.2 min
- half-life ([1]; PO, 50 mg/kg IKE): 57.6 min
- concentration at 8 h ([1]; PO, 50 mg/kg IKE): 48 ng/mL
- lipid ROS (C11-BODIPY) [2]: dose-dependent increase in lipid ROS
- MDA increase (TBARS assay, MDA-TBA adducts' fluorescence) ([3]; 23 mg/kg daily for 14 days): 1.4 fold
- MDA increase (TBARS assay, MDA-TBA adducts' fluorescence) ([3]; 40 mg/kg daily for 14 days): 1.8 fold
- cleaved-caspase 3 in tumor tissue (western blot) [4]: no cleaved-caspase 3 increase
